# Laboratory results reported in patent EP4782453A1 (Beyang Therapeutics Co., Ltd., priority 2023, dated 2025).
# Where two headings read alike, the source gives them in different places.
# Columns and labels:
# [1] = target: T1, Menin-MLL (Homo sapiens, UniProt O00255); assay: Inhibitory activity against Menin-MLL binding (fluorescence polarization); conditions: 150 nM His-Menin, 15 nM FITC-MLL, 25°C for 60 min
# T1 construct: His-Menin (M1-L615 end); purchased BIORTUS BP9210
# T1 sequence (O00255 1-615 isoform O00255-1): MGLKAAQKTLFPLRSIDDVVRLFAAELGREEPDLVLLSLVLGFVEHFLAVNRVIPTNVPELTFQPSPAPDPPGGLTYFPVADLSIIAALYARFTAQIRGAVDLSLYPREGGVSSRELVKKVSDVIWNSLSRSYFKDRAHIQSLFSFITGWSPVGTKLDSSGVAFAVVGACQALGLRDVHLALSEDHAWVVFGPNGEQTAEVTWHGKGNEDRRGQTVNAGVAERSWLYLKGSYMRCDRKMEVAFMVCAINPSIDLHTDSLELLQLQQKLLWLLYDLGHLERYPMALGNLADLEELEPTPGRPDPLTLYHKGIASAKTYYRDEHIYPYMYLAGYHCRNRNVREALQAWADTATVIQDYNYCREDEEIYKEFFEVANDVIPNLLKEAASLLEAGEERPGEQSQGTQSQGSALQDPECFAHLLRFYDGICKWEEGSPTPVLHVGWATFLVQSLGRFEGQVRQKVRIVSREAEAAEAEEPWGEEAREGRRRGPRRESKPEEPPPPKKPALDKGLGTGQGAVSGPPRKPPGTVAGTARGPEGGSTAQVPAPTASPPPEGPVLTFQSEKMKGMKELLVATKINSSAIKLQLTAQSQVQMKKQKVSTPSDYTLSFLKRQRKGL
# Summary of the method: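 Fluorescence polarization competition: compound and 150 nM His-tagged menin (residues M1-L615) sit 15 min at 25 °C in pH 7.5 HEPES buffer with NaCl, DTT and BSA; 15 nM FITC-labelled MLL peptide then binds for 60 min. IC50 fitted sigmoidally from mP values, duplicate wells.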
# [2] = test system: MEIS1 gene expression; assay: Inhibition of MEIS1 gene expression in human tumor cells (qRT-PCR), OCI-AML3; type: cell-based; conditions: OCI-AML-3, OCI-AML3 (carrying NPM1c), 48 hours of incubation, relative MEIS1 gene expression vs GAPDH
# Description: Experimental Example 3: Evaluation of Inhibitory Activity of Compounds Against MEISI Gene Expression in Human Tumor Cells
# The effect of test samples on MEIS1 gene expression in vitro cultured human leukemia cells MV-4-11 (carrying MLL-AF4), MOLM-13 (carrying MLL-AF9), and OCI-AML3 (carrying NPM1c) was studied.
# • Human acute lymphoblastic leukemia cells MV-4-11, purchased from American Type Culture Collection, Catalog Number: CRL-9591; • Human acute myeloid leukemia cells MOLM-13, purchased from COBIOER BIOSCIENCES CO., LTD, Catalog Number: CBP60678; • Human acute myeloid leukemia cells OCI-AML3, purchased from COBIOER BIOSCIENCES CO., LTD, Catalog Number: CBP60817; • MEIS1 Primer/Probe, purchased from IDT, Catalog Number: 40831613; and • GAPDH Primer/Probe, purchased from IDT, Catalog Number: 22214836.
# MV-4-11 cells were cultured in an IMDM medium containing 10% fetal bovine serum, or MOLM-13 and OCI-AML3 cells were cultured in an RPMI-1640 medium containing 20% fetal bovine serum, each supplemented with 100 U·mL^-1 penicillin and 100 µg·mL^-1 streptomycin. These cells were cultured at 37°C with 5% CO2. The suspensions of individual cell lines were prepared in their respective media and seeded into 48-well plates at a density of 100,000 cells/well. On the day of the experiment, a compound stock solution was diluted in a 6-fold gradient using DMSO. Each gradient-diluted stock solution was then further diluted 250-fold with a complete medium to prepare a series of working solutions at different concentrations. Next, 250 µL of working solution (containing the complete medium with a 2-fold serial concentration of the test compound or a positive control compound, or containing a control complete medium) was added to each well. After 48 hours of incubation, cells from the 48-well plate were collected into 1 mL centrifuge tubes, centrifuged at 1000 rpm for 5 minutes, and the complete medium was removed. Cells were washed twice with 1 mL PBS and centrifuged to remove PBS. Total RNA was extracted using the RNeasy Mini Kit (250) (QIAGEN, 74106). The threshold cycle (Ct) value for gene expression was determined using the HiScript II U+ One Step qRT-PCR Probe Kit (Vazyme) (Vazyme, Q223-01), with 3 replicates per sample. The prepared reaction mixture was placed in an ABI 7500 real-time PCR instrument, and the reaction proceeded following the procedures below. [formula]
# Next, for the relative MEIS1 gene expression, the concentration (EC50) that inhibits 50% of relative MEIS1 gene expression was calculated using GraphPad Prism 8 software.
# [3] = Menin-MLL IC50, fluorescence polarization
# [4] = fluorescence polarization, read-out: Menin-MLL IC50
Compound,"IC50 [1, 4] [nM]",also measured
"CCN(C(=O)c1cc(F)ccc1-c1cc(C2(F)CN(C(=O)C3NC4CCC3CC4)C2)cn2c(C)ncc12)C(C)C [Example 75, N-ethyl-5-fluoro-2-(6-{3-fluoro-1-[(1R,3S,4S)-2-azabicyclo[2.2.2]octan-3-carbonyl]azacyclobutan-3-yl}-3-methylimidazo[1,5-a]pyridin-8-yl)-N-(isopropyl) benzamide]",,"IC50 [1, 3]: 17.5 nM"
"CCS(=O)(=O)N[C@H]1CC[C@H](CN2CC(c3cc(-c4ccc(F)cc4C(=O)N4CCOC[C@H]4C)c4cnc(C)n4c3)C2)CC1 [Example 134, N-[(1r,4r)-4-{[3-(8-{4-fluoro-2-[(3R)-3-methylmorpholin-4-carbonyl]phenyl}-3-methylimidazo[1,5-a]pyridin-6-yl)azacyclobutan-1-yl]methyl}cyclohexyl]ethan-1-sulfonamide]",,"IC50 [1, 3]: 17.5 nM"
CCN(C(=O)c1cc(F)ccc1-c1cc(C2CN(C[C@H]3CC[C@H](NS(=O)(=O)CC)CC3)C2)cn2c(C)nc(F)c12)C(C)C [Example 137],6.5,
"COCCN(C)CCCC(C(C)C)N1CC(c2cc(-c3ccc(F)cc3C(=O)N(CC(F)F)C(C)C)c3c(F)nc(C)n3c2)C1 (stereo not shown) [Example 142, N-(2,2-difluoroethyl)-5-fluoro-2-[1-fluoro-6-(1-{6-[(2-methoxyethyl)(methyl)amino]-2-methylhexan-3-yl}azacyclobutan-3-yl)-3-methylimidazo[1,5-a]pyridin-8-yl]-N-(isopropyl)benzamide]",10,
"CCS(=O)(=O)N[C@H]1CC[C@H](CN2CC(c3cc(-c4ccc(F)cc4C(=O)N4[C@H](C)COC[C@H]4C)c4c(F)nc(C)n4c3)C2)CC1 [Example 197, N-[(1r,4r)-4-{[3-(8-{2-[(3R,5R)-3,5-dimethylmorpholin-4-carbonyl]-4-fluorophenyl}-1-fluoro-3-methylimidazo[1,5-a]pyridin-6-yl)azacyclobutan-1-yl]methyl}cyclohexyl]ethan-1-sulfonamide]",,"IC50 ([1]; read-out: Menin-MLL IC50, fluorescence polarization): 6.5 nM"
COC1CCN(CCCC(C(C)C)N2CC(c3cc(-c4ccc(F)cc4C(=O)N4CCOCC4C)c4c(F)nc(C)n4c3)C2)C1 (stereo not shown) [Example 201-1],2.6,EC50 [2]: 2.4 nM
CO[C@@H]1CCN(CCC[C@H](C(C)C)N2CC(c3cc(-c4ccc(F)cc4C(=O)N4CCOC[C@H]4C)c4c(F)nc(C)n4c3)C2)C1 [Example 202],4.3,
"COC1CCN(CCC[C@H](C(C)C)N2CC(c3cc(-c4ccc(F)cc4C(=O)N4CCOC[C@H]4C)c4c(F)nc(C)n4c3)C2)CC1 [Example 204, (3R)-4-[5-fluoro-2-(1-fluoro-6-{1-[(3R)-6-(4-methoxypiperidin-1-yl)-2-methylhexan-3-yl]azacyclobutan-3-yl}-3-methylimidazo[1,5-a]pyridin-8-yl)benzoyl]-3-methylmorpholine]",4.8,EC50 [2]: 13 nM
Cc1nc(F)c2c(-c3ccc(F)cc3C(=O)N3[C@H](C)COC[C@H]3C)cc(C3CN(CC4CCOCC4)C3)cn12 [Example 208],9,
CCNC(=O)N1CCC(CN2CC(c3cc(-c4ccc(F)cc4C(=O)N4CCOC[C@H]4C)c4c(F)nc(C)n4c3)C2)CC1 [Example 261],8.5,
CNC(=O)N1CCC([C@H](C)N2CC(c3cc(-c4ccc(F)cc4C(=O)N4CCOC[C@H]4C)c4c(F)nc(C)n4c3)C2)CC1 [Example 264-2],6,
CC(=O)N1CCN(CCC[C@H](C(C)C)N2CC(c3cc(-c4ccc(F)cc4C(=O)N4CCOC[C@H]4C)c4c(F)nc(C)n4c3)C2)CC1 [Example 265],12.8,EC50 [2]: 70 nM
"Cc1nc(F)c2c(-c3ccc(F)cc3C(=O)N3CCOC[C@H]3C)cc(C3CN([C@H](CCCN4CCN(C)CC4)C(C)C)C3)cn12 [Example 275, (3R)-4-[5-fluoro-2-(1-fluoro-3-methyl-6-{1-[(3R)-2-methyl-6-(4-methylpiperazin-1-yl)hexan-3-yl]azacyclobutan-3-yl}imidazo[1,5-a]pyridin-8-yl)benzoyl]-3-methylmorpholine]",3.2,EC50 [2]: 16 nM
Cc1nc(F)c2c(-c3ccc(F)cc3C(=O)N3CCOCC3C)cc(C3CN(C(CCCN4CCCC(O)C4)C(C)C)C3)cn12 (stereo not shown) [Example 292],4.5,
CO[C@@H]1CCCN(CCC[C@H](C(C)C)N2CC(c3cc(-c4ccc(F)cc4C(=O)N4CCOC[C@H]4C)c4c(F)nc(C)n4c3)C2)C1 [Example 305],8,
CO[C@H]1CCCN(CCC[C@H](C(C)C)N2CC(c3cc(-c4ccc(F)cc4C(=O)N4CCOC[C@H]4C)c4c(F)nc(C)n4c3)C2)C1 [Example 306],6.5,
"Cc1nc(F)c2c(-c3ccc(F)cc3C(=O)N3CCOC[C@H]3C)cc(C3CN(C(CC[C@@H]4COCCN4)C(C)C)C3)cn12 (stereo partly drawn) [Example 371, (3R)-4-{5-fluoro-2-[1-fluoro-3-methyl-6-(1-{4-methyl-1-[(3R)-morpholin-3-yl]pentan-3-yl}azacyclobutan-3-yl)imidazo[1,5-a]pyridin-8-yl]benzoyl}-3-methylmorpholine]",4.8,

# More lines, in order of falling IC50 [1, 4], values ahead:
"IC50 [1, 4] [nM]",Compound,also measured
14.5,COCCN(C)CCCC(C(C)C)N1CC(c2cc(-c3ccc(F)cc3C(=O)N3CCOCC3C)c3cnn(C)c3c2)C1 (stereo not shown) [Example 185],
13.8,"CC(=O)N1CCC([C@H](C)N2CC(c3cc(-c4ccc(F)cc4C(=O)N4CCOC[C@H]4C)c4c(F)nc(C)n4c3)C2)CC1 [Example 257-2, 1-{4-[(1S)-1-[3-(1-fluoro-8-{4-fluoro-2-[(3R)-3-methylmorpholin-4-carbonyl]phenyl}-3-methylimidazo[1,5-a]pyridin-6-yl)azacyclobutan-1-yl]ethyl]piperidin-1-yl}ethan-1-one]",EC50 [2]: 33 nM
10.3,CC(=O)N1CCC(CN2CC(c3cc(-c4ccc(F)cc4C(=O)N4[C@H](C)COC[C@H]4C)c4c(F)nc(C)n4c3)C2)CC1 [Example 205],
6,CCN(C(=O)c1cc(F)ccc1-c1cc(C2CCN(Cc3ccc(-c4cc(OC)c(OC)nn4)cc3)C2)cn2c(C)ncc12)C(C)C (stereo not shown) [Example 83],
6,CCS(=O)(=O)N[C@H]1CC[C@H](CN2CC(c3cc(-c4ccc(F)cc4C(=O)N(CC(F)F)C(C)C)c4cnc(C)n4c3)C2)CC1 [Example 138],
5.2,"COCCN(C)CCC[C@H](C(C)C)N1CC(c2cc(-c3ccc(F)cc3C(=O)N3[C@H](C)COC[C@H]3C)c3cnn(C)c3c2)C1 [Example 186-2, [(4R)-4-[3-(4-{2-[(3R,5R)-3,5-dimethylmorpholin-4-carbonyl]-4-fluorophenyl}-1-methyl-1H-indazol-6-yl)azacyclobutan-1-yl]-5-methylhexyl](2-methoxyethyl)methylamine]",
4.3,COCCN(C)CCC[C@H](C(C)C)N1CC(c2cc(-c3ccc(F)cc3C(=O)N3CCOC[C@H]3C)c3c(F)nc(C)n3c2)C1 [Example 200-1],EC50 [2]: 13 nM
3.3,Cc1nc(F)c2c(-c3ccc(F)cc3C(=O)N3CCOC[C@H]3C)cc(C3CN([C@H](CCCN4CCN(C5CC5)CC4)C(C)C)C3)cn12 [Example 350],
